Data set [1] is described as follows: Safety assessment in wild type mice, 3 months. The format is in vivo. The protocol:
FIG. 10 includes a graph of the body weights of wild type C57B16J mice treated with Compound 1 for 3 months. Mice were injected twice a week with 150 μL of Compound 1 at 250 mg/kg in 5% DMSO, or an equal volume of 5% DMSO (V, vehicle) control. Injections were intravenous for the first month and then subcutaneously for the following 2 months;
FIG. 11 includes images of brain, liver, skeletal muscle, and heart tissue slices of wild type C57B16J mice treated for 3 months with Compound 1. The slices were stained by H&E staining in order to visualize lesions. No lesions were apparent in either treatment. Scale bars, 500 μm (brain), 100 μm (liver), 200 µm (muscle), 100 μm (heart).
The inventors have tested Compound 1 (FIG. 1A) for its capacity to correct the deficient motor phenotypes and short lifespan in the APBD mouse model Gbe^ys/ys. Compound 1 is one of 19 PG reducing HTS hits previously discovered by the inventors. It was selected by in silico ADMET (Absorption, Distribution, Metabolism, Excretion, and Toxicity) tests run on these hits to predict which of them should be safe and pharmacokinetically and pharmacodynamically preferred and is therefore worth further pursuit (FIG. 8, compound “A”). […] Following 1 h and 24 h treatments, mice were also examined for abnormal spontaneous behavior, such as immobility, excessive running, stereotyped movements, and abnormal posture (Irwin tests).

For data set [2], the system named is PD patient-derived skin fibroblasts. The data set can be described thus: Autophagic flux in Pompe disease fibroblasts. It counts as cell-based, human. Conditions: serum starved, 50 μM, 24 h. As for the experimental part: FIG. 15 includes a micrograph and a vertical bar graph showing autophagic flux in PD patient-derived skin fibroblasts, serum starved and treated (or not) with 50 μM 144DG11 (indicated as comp. A).
144DG11 can activate autophagy in the lysosomal storage disease (LSD) Pompe disease (PD) in which autophagy is perturbed (FIG. 15). […] This ratio serves as the most accepted marker for autophagy and autophagic flux. […] These observations indicate that, as in the GSD APBD, 144DG11 can activate autophagy also in the typical LSD PD in which autophagy is disturbed.

The next data set deals with T1, LAMP1 (Homo sapiens, UniProt P11279).
T1 construct: endogenous in cells
T1 sequence (P11279 29-417): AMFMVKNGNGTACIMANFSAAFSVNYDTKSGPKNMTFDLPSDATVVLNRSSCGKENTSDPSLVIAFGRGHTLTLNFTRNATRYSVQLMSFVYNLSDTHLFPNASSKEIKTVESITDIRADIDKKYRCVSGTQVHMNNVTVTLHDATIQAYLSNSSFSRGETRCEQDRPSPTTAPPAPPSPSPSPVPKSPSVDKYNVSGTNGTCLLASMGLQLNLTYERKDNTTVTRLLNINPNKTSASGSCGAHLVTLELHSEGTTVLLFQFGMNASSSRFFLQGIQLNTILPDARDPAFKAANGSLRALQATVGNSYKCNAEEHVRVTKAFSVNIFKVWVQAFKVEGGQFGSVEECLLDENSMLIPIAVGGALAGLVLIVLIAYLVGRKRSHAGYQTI
The data set can be described thus: Cellular thermal shift assay (CETSA). It counts as binding. The source says: FIGS. 5A-5E include images of experiments showing hetero-assembly forms around Compound 1 and not around endogenous molecules as shown by the liquid crystals formed in experiments 1-3 (5A); image of STRING network of targets at the interactome of Compound 1 (5B); cellular thermal shift assay (CETSA) of different targets of the Compound 1 hetero-assembly (5C); surface plasmon resonance sensograms of binding of Compound 1 to LAMP1 (5D); sensogram experiments consisting of association and dissociation at the indicated concentration ranges and pH values were then conducted.
The inventors have investigated the mechanism of action of 144DG11. To that end, the inventors first decided to determine its molecular target. Nematic protein organization technique (NPOT, Inoviem, Ltd.) was applied to homogenates of APBD patient fibroblasts. The NPOT analysis has discovered protein hetero assemblies uniquely generated around 144DG11 only when it was added to the cell homogenates (FIG. 5A). The next step in this analysis has identified the interactome of protein targets interacting with 144DG11 in APBD patients' fibroblasts. […] In the search for a putative binding site for Compound 1 in LAMP1, the inventors have analyzed the N- and C-terminal subdomains of its luminal domain (residues A29-R195 and S217-D378, respectively), which have a similar topology. […]

From patent US20240139167A1, “LYSOSOME-ASSOCIATED MEMBRANE PROTEIN TARGETING COMPOUNDS AND USES THEREOF” (HADASIT MEDICAL RESEARCH SERVICES AND DEVELOPMENT LTD., priority 2021, published 2024) come the findings set out here.

In the case of `COCCN(Cc1sccc1C)C(=O)c1cc(C)nc(O)c1` [Compound 1], the “animals' weight gain over time” value in data set [1] (3 months at 250 mg/kg in 5% DMSO) was “did not influence”. The “histopathological damage or lesions in brain, liver, skeletal muscle, and heart” value in data set [1] (after 3 months exposure) is “did not produce any histopathological damage or lesions”. The “sensitivity to vinblastine (increase in the LC3II/LC3I ratio)” value in data set [2] was “increased”. Besides, at LAMP1, the “increase in LAMP1 levels” value came to 1.2 fold and the “interaction with LAMP1 (not other protein targets; 6 of 8 NPOT targets tested)” value was “directly interacts”.
